Experimental data published in patent publication US9289437B2, “Method for preparation of a controlled release system” (Cristal Delivery B.V., priority 2008, dated 2016).

Conditions: 6 hours after intravenous administration, B16F10 tumor-bearing mice

C[C@@H]1C[C@H]2[C@@H]3CCC4=CC(=O)C=C[C@]4(C)[C@@]3(F)[C@@H](O)C[C@]2(C)[C@@]1(O)C(=O)CO [free dexamethasone, dexamethasone]
fraction still residing in the blood stream: 0.3%
